The record followed here is patent US9062046B2, “Substituted imidazoquinoline derivatives as kinase inhibitors” (Piramal Enterprises Limited, priority 2011, dated 2015).

As a reminder, the IC50 is the concentration needed to halve the response being measured. Higher therefore signals weaker potency in that assay. As a reminder, the inhibition is the change of the read-out against control, counted positive when it falls.

Experiment [1] deals with A2780 (ovarian cell line). Description: Cytotoxicity assay (propidium iodide assay), A2780. It counts as cell-based. Conditions: A2780 cells, 48 h treatment; for IC50 / inhibition at 1 µM: Homo sapiens. Summed up:
(§1)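 A2780 and PC3 cells, 3000/well, were treated with compound for 48 h after 18-24 h attachment. After washing, propidium iodide 7 μg/ml was added, followed by freeze-thaw at −70 °C and a fluorescence read. Viability was taken relative to untreated wells, with IC50 derived from the curves.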

Experiment [2] deals with PC3 (prostate cell line). Description: Cytotoxicity assay (propidium iodide assay), PC3. It counts as cell-based. The following applies: PC3 cells, 48 h treatment; for IC50 / inhibition at 1 µM: Homo sapiens, PC-3. An outline of the steps:
as §1

Regarding `CNc1ncc(-c2ccc3ncc4c(c3c2)n(-c2ccc(C(C)(C)C#N)cc2)c(=NC#N)n4C)cc1C(F)(F)F` [Example 12, N-(1-(4-(2-cyanopropan-2-yl)phenyl)-3-methyl-8-(6-(methylamino)-5-(trifluoromethyl)pyridin-3-yl)-1H-imidazo[4,5-c]quinolin-2(3H)-ylidene)cyanamide], the IC50 in experiment [1] and in experiment [2] was no more than 0.5 µM each time.
In the case of `COc1ccc(-n2c(=NC#N)n(C)c3cnc4ccc(-c5ccc(OC)c(OC)c5)cc4c32)cn1` [Example 36, N-(8-(3,4-dimethoxyphenyl)-1-(6-methoxypyridin-3-yl)-3-methyl-1H-imidazo[4,5-c]quinolin-2(3H)-ylidene)cyanamide], the inhibition at 1 µM in experiment [1] and in experiment [2] was no less than 70% each time.
As to `Cn1c(=NC#N)n(-c2ccc(C(C)(C)C#N)nc2)c2c3cc(-c4cc(F)cc(F)c4)ccc3ncc21` [Example 63, N-(1-(6-(2-cyanopropan-2-yl)pyridin-3-yl)-8-(3,5-difluorophenyl)-3-methyl-1H-imidazo[4,5-c]quinolin-2(3H)-ylidene)cyanamide], the figures for the inhibition at 1 µM in experiment [1] and in experiment [2] were 30 to 70% and less than 30%, respectively.
For `Cn1c(=NC#N)n(-c2ccc(C(C)(C)C#N)nc2)c2c3cc(-c4ccc(C(F)(F)F)cc4)ccc3ncc21` [Example 68, N-(1-(6-(2-cyanopropan-2-yl)pyridin-3-yl)-3-methyl-8-(4-(trifluoromethyl)phenyl)-1H-imidazo[4,5-c]quinolin-2(3H)-ylidene)cyanamide], the inhibition at 1 µM is 30 to 70% in experiment [1] and less than 30% in experiment [2].
On to “N-(1-(6-methoxypyridin-3-yl)-3-methyl-8-(4-(trifluoromethyl)phenyl)-1H-imidazo[4,5-c]quinolin-2(3H)-ylidene)cyanamide [Example 43]”, for which the “% Inhibition at 1 μM, A2780” value in experiment [1] was “+ (<30%)”. Moreover, the “% Inhibition at 1 μM, PC3” value in experiment [2] is recorded as “+ (<30%)”.
As to `Cn1c(=NC#N)n(-c2ccc(OC(F)(F)F)cc2)c2c3cc(-c4cccnc4)ccc3ncc21` [Example 108, N-(3-methyl-8-(pyridin-3-yl)-1-(4-(trifluoromethoxy)phenyl)-1H-imidazo[4,5-c]quinolin-2(3H)-ylidene)cyanamide], the IC50 in experiment [1] was no more than 0.5 µM; in experiment [2], 0.5 to 2 µM.
`COc1ccc(-n2c(=NC#N)n(C)c3cnc4ccc(-c5ccccc5OC(C)C)cc4c32)cn1` [Example 27, N-(8-(2-isopropoxyphenyl)-1-(6-methoxypyridin-3-yl)-3-methyl-1H-imidazo[4,5-c]quinolin-2(3H)-ylidene)cyanamide]: the inhibition at 1 µM in experiment [1] and in experiment [2] was less than 30% throughout.
Consider `CN(C)c1ncc(-c2ccc3ncc4c(c3c2)n(-c2ccc(C(C)(C)C#N)cc2)c(=NC#N)n4C)cc1C(F)(F)F` [Example 129, N-(1-(4-(2-cyanopropan-2-yl)phenyl)-8-(6-(dimethylamino)-5-(trifluoromethyl)pyridin-3-yl)-3-methyl-1H-imidazo[4,5-c]quinolin-2(3H)-ylidene) cyanamide], for which, in experiment [1], the “% Inhibition at 1 μM, A2780” value is reported as “+++ (≧70%)”. Further, the “% Inhibition at 1 μM, PC3” value in experiment [2] is recorded as “++ (≧30% upto 70%)”.
Regarding `COc1ccc(-n2c(=NC#N)n(C)c3cnc4ccc(-c5ccc(O)cc5)cc4c32)cn1` [Example 46, N-(8-(4-hydroxyphenyl)-1-(6-methoxypyridin-3-yl)-3-methyl-1H-imidazo[4,5-c]quinolin-2(3H)-ylidene)cyanamide], the inhibition at 1 µM in experiment [1] was no less than 70%; in experiment [2] it was 30 to 70%.
For the compound `Cn1c(=NC#N)n(-c2ccc(C(C)(C)C#N)nc2)c2c3cc(-c4cccnc4F)ccc3ncc21` [Example 64, N-(1-(6-(2-cyanopropan-2-yl)pyridin-3-yl)-8-(2-fluoropyridin-3-yl)-3-methyl-1H-imidazo[4,5-c]quinolin-2(3H)-ylidene)cyanamide], the inhibition at 1 µM is 30 to 70% in experiment [1] and less than 30% in experiment [2].
As to `CCCC(CCC)C(=O)Nc1ncc(-c2ccc3ncc4c(c3c2)n(-c2ccc(C(C)(C)C#N)nc2)c(=NC#N)n4C)cc1C(F)(F)F` [Example 136, N-(5-(2-(cyanoimino)-1-(6-(2-cyanopropan-2-yl)pyridin-3-yl)-3-methyl-2,3-dihydro-1H-imidazo[4,5-c]quinolin-8-yl)-3-(trifluoromethyl)pyridin-2-yl)-2-propylpentanamide], the inhibition at 1 µM is no less than 70% in experiment [1] and 30 to 70% in experiment [2].
On to `Cn1c(=NC#N)n(-c2ccc(C(C)(C)C#N)nc2)c2c3cc(-c4ccc(O)cc4)ccc3ncc21` [Example 50, N-(1-(6-(2-cyanopropan-2-yl)pyridin-3-yl)-8-(4-hydroxyphenyl)-3-methyl-1H-imidazo[4,5-c]quinolin-2(3H)-ylidene)cyanamide], for which the inhibition at 1 µM in experiment [1] was no less than 70%; in experiment [2], 30 to 70%.
Take `COc1ccc(-n2c(=NC#N)n(C)c3cnc4ccc(-c5cnccc5F)cc4c32)cn1` [Example 39, N-(8-(4-fluoropyridin-3-yl)-1-(6-methoxypyridin-3-yl)-3-methyl-1H-imidazo[4,5-c]quinolin-2(3H)-ylidene)cyanamide]: the inhibition at 1 µM in experiment [1] and in experiment [2] was 30 to 70% each time.
As to `Cc1cc(-c2ccc3ncc4c(c3c2)n(-c2ccc(C(C)(C)C#N)nc2)c(=NC#N)n4C)cnc1N1CCN(C(=O)OC(C)(C)C)CC1` [Example 119, tert-butyl 4-(5-(2-(cyanoimino)-1-(6-(2-cyanopropan-2-yl)pyridin-3-yl)-3-methyl-2,3-dihydro-1H-imidazo[4,5-c]quinolin-8-yl)-3-methylpyridin-2-yl)piperazine-1-carboxylate], the inhibition at 1 µM in experiment [1] and in experiment [2] was no less than 70% throughout.
As for `Cc1ccc(-c2ccc3ncc4c(c3c2)n(-c2ccc(C(C)(C)C#N)nc2)c(=NC#N)n4C)cc1` [Example 67, N-(1-(6-(2-cyanopropan-2-yl)pyridin-3-yl)-3-methyl-8-p-tolyl-1H-imidazo[4,5-c]quinolin-2(3H)-ylidene)cyanamide], the inhibition at 1 µM in experiment [1] and in experiment [2] was 30 to 70% in each case.
`COc1ncc(-c2ccc3ncc4c(c3c2)n(-c2ccc(OC(F)(F)F)cc2)c(=NC#N)n4C)cc1N` [Example 106, N-(8-(5-amino-6-methoxypyridin-3-yl)-3-methyl-1-(4-(trifluoromethoxy)phenyl)-1H-imidazo[4,5-c]quinolin-2(3H)-ylidene)cyanamide]: the IC50 in experiment [1] and in experiment [2] was no more than 0.5 µM throughout.
In the case of `Cn1c(=NC#N)n(-c2ccc(C(C)(C)C#N)nc2)c2c3cc(-c4cncc(CNC(=O)OC(C)(C)C)c4)ccc3ncc21` [Example 71, tert-butyl (5-(2-(cyanoimino)-1-(6-(2-cyanopropan-2-yl)pyridin-3-yl)-3-methyl-2,3-dihydro-1H-imidazo[4,5-c]quinolin-8-yl)pyridin-3-yl)methylcarbamate], the inhibition at 1 µM in experiment [1] and in experiment [2] was less than 30% throughout.
As to `COC(=O)c1cc(-c2ccc3ncc4c(c3c2)n(-c2ccc(C(C)(C)C#N)nc2)c(=NC#N)n4C)cnc1N` [Example 137, Methyl 2-amino-5-(2-(cyanoimino)-1-(6-(2-cyanopropan-2-yl)pyridin-3-yl)-3-methyl-2,3-dihydro-1H-imidazo[4,5-c]quinolin-8-yl)nicotinate], the IC50 in experiment [1] and in experiment [2] was no more than 0.5 µM in each case.
For the compound `COc1ncc(-c2ccc3ncc4c(c3c2)n(-c2cncc(-c3ccccc3)c2)c(=NC#N)n4C)cc1N` [Example 93, N-(8-(5-amino-6-methoxypyridin-3-yl)-3-methyl-1-(5-phenylpyridin-3-yl)-1H-imidazo[4,5-c]quinolin-2(3H)-ylidene)cyanamide], the IC50 in experiment [1] and in experiment [2] was 0.5 to 2 µM in each case.
Consider `COc1ccc(-n2c(=NC#N)n(C)c3cnc4ccc(-c5cnc6ccccc6c5)cc4c32)c(OC)c1` [Example 100, N-(1-(2,4-dimethoxyphenyl)-3-methyl-8-(quinolin-3-yl)-1H-imidazo[4,5-c]quinolin-2(3H)-ylidene)cyanamide], for which the IC50 in experiment [1] and in experiment [2] was no more than 0.5 µM each time.
On to `Cn1c(=NC#N)n(-c2ccc(C(C)(C)C#N)nc2)c2c3cc(-c4ccc(F)cc4)ccc3ncc21` [Example 80, N-(1-(6-(2-cyanopropan-2-yl)pyridin-3-yl)-8-(4-fluorophenyl)-3-methyl-1H-imidazo[4,5-c]quinolin-2(3H)-ylidene)cyanamide], for which the figures for the inhibition at 1 µM in experiment [1] and in experiment [2] were no less than 70% and 30 to 70%, respectively.
For the compound `COc1ccc(-n2c(=NC#N)n(C)c3cnc4ccc(-c5ccccc5C)cc4c32)cn1` [Example 34, N-(1-(6-methoxypyridin-3-yl)-3-methyl-8-o-tolyl-1H-imidazo[4,5-c]quinolin-2(3H)-ylidene)cyanamide], the inhibition at 1 µM in experiment [1] and in experiment [2] was less than 30% in each case.
